# Results published in article PMC11359831, “Stepwise Structural Simplification of the Dihydroxyanthraquinone Moiety of a Multitarget Rhein-Based Anti-Alzheimer Lead to Improve Drug Metabolism and Pharmacokinetic Properties” (Pharmaceutics, 2024).
# Key:
# [1] = Fish embryo acute toxicity (FET) test in zebrafish embryos; type: in vivo; details: in vivo, other: embryos exposed by immersion in the test solution, pH 7.4, 72 h of exposure, read-out: LC50 (CI95)
# Procedure: Test solutions were freshly prepared for each experiment and were renewed every 24 h. The maximum tested compound concentration was 100 µM and four additional concentrations were also prepared by applying a 1:2 dilution factor. A 1% DMSO solution was used as a vehicle control.
# Six-well plates were incubated at 26 ± 1 °C under a 14:10 light:dark cycle for 72 h. To assess the potential lethality of the new compounds, we followed, every 24 h, the four parameters that are outlined in the OECD Guideline No. 236: embryo coagulation, lack of somite formation, non-detachment of the tail, and absence of a heartbeat (from 48 h onward). The percentage of lethality at each concentration that was tested for the new compounds was recorded and expressed as mean ± SEM from three or more independent experiments. […] LOAEC values were determined through an ANOVA test with Bonferroni’s post-hoc test for multiple comparisons (significance threshold: p < 0.05).
# tau aggregation = target: T1, tau aggregation (Homo sapiens, UniProt P10636); assay: Tau aggregation inhibition in genetically modified E. coli cells (Th-S fluorescence); type: cell-based, Escherichia coli; details: live E. coli cells overexpressing tau, read-out: Tau Aggregation % inh. @10 µM
# T1 construct: expressed in transfected cells; host or cells: E. coli BL21 (DE3) bearing pTARA and pRKT42
# Procedure: For tau overexpression, M9 minimal medium (10 mL) containing glucose (0.5%), ampicillin (50 μg/mL), chloramphenicol (12.5 μg/mL), and E. coli BL21 (DE3) cells bearing the pTARA plasmid, which carries the RNA polymerase gene of the T7 phage (T7RP) under control of the PBAD promoter, and subsequent transformation with the pRKT42 vector were used instead. In this case, the overnight culture for a 1:500 dilution was added to fresh M9 minimal medium containing glucose (0.5%), chloramphenicol (12.5 μg/mL), ampicillin (50 μg/mL), and Th-S (250 µM).
# (§1) For Aβ42 overexpression, the corresponding E. coli cell cultures were kept growing overnight (37 °C; 250 rpm) until they reached an OD600 = 0.6. These cultures (980 μL) were added to a mixture of 10 μL of a solution of the new compounds in DMSO and 10 μL of 100 mM isopropyl 1-thio-β-D-galactopyranoside (IPTG), to reach a final compound concentration of 10 μM. The same procedure was used for tau overexpression but employing 10 μL of 25% arabinose instead of IPTG. The resulting E. coli cultures were kept growing overnight (37 °C; 1400 rpm) using an Eppendorf Thermomixer (Hamburg, Germany). To prepare a negative control for the assay, showing the highest amount of the amyloidogenic protein, the same quantity of DMSO, without the compounds to be tested, was added to the sample. With the double purpose of obtaining positive controls devoid of the amyloidogenic proteins and assessing the potential intrinsic toxicity of the new compounds, we also prepared samples that had not been treated with either IPTG or arabinose (non-induced samples).
# (§2) To assess the inhibitory activity of compounds 4–7 on Aβ42 and tau aggregation within E. coli cells, a fluorescence assay was employed, using Th-S ([…] stock solution, T1892, Sigma, St. Louis, MO, USA) in double-distilled water (Milli-Q system, Millipore, Bay City, MI, USA) and an Aminco Bowman Series 2 luminescence spectrophotometer (Aminco-Bowman AB2, SLM Aminco, Rochester, NY, USA), working at 25 °C in the wavelength range of 460–600 nm, with λex = 445 nm, slit widths of 4 nm, and λem = 485 nm. The results are given as the average of nine independent experiments, each performed in triplicate.
# [2] = Plasma stability, human plasma; type: in vitro ADME; details: 37 °C, 5 μM; for remaining at 1 h, 5 μM: read-out: Plasma Stability % Remaining Compound, human, 1 h; for remaining at 6 h, 5 μM: read-out: Plasma Stability % Remaining Compound, human, 6 h
# human serum BChE (hBChE) = target: T2, human serum BChE (hBChE) (Homo sapiens, UniProt P06276); assay: biochemical; details: for IC50: human serum BChE, Ellman method, mean ± standard error
# T2 construct: human serum BChE (hBChE); purchased Sigma (Milan, Italy); host or cells: human serum
# Procedure: (§5) The stock and assay solutions were prepared as follows:
# Stock hBChE solution: solution of the lyophilized powder in 0.1% aq. gelatin.
# (§6) Stock solutions of the new compounds: 1 mM solutions in methanol, with further dilutions in this solvent to the desired concentrations.
# Aβ42 aggregation = target: T3, Aβ42 aggregation (Homo sapiens, UniProt P05067); assay: Aβ42 aggregation inhibition in genetically modified E. coli cells (Th-S fluorescence); type: cell-based, Escherichia coli; details: live E. coli cells overexpressing Aβ42, read-out: Aβ42 Aggregation % inh. @10 µM
# T3 construct: expressed in transfected cells; host or cells: E. coli BL21 (DE3) bearing pET28a-Aβ42
# Procedure: For Aβ42 overexpression, M9 minimal medium (10 mL) containing kanamycin (50 μg/mL) was added to a colony of E. coli BL21 (DE3) competent cells, bearing the pET28a plasmid (Novagen, Inc., Madison, WI, USA), which contains the DNA sequence encoding for Aβ42. After overnight culture, the volume necessary to obtain a 1:500 dilution was added to fresh M9 minimal medium that contained kanamycin (50 μg/mL) and thioflavin-S (Th-S, 250 µM).
# as §1, §2
# [3] = target: T4, human recombinant AChE (hAChE) (Homo sapiens, UniProt P22303); assay: biochemical; details: for AChE vs. BChE selectivity: hBChE IC50 relative to hAChE IC50; for IC50: human recombinant AChE, Ellman method, mean ± standard error
# T4 construct: purchased Sigma (Milan, Italy)
# Procedure: as §5
# Stock hAChE solution: solution of the lyophilized powder in 0.1% Triton X-100/0.1 M potassium phosphate (pH 8.0).
# as §6
# [4] = Plasma stability, rat plasma; type: in vitro ADME; details: rat, plasma, 37 °C; for remaining at 1 h, 5 μM: read-out: Plasma Stability % Remaining Compound, rat, 1 h; for remaining at 6 h, 5 μM: read-out: Plasma Stability % Remaining Compound, rat, 6 h
# Procedure: (§3) The plasma stability of the new compounds was tested using in human, mouse, and rat plasma (Seralab). One hundred μL of 5 μM solutions of the new compounds in plasma were plated and incubated at 37 °C for 0, 60, 120, and 360 min, and then treated with 300 μL of acetonitrile and centrifuged (4000× g; 60 min; 4 °C). Sample quantification was performed by UPLC/MS/MS analysis of the resulting supernatant using a UPLC QSM Waters Acquity apparatus, equipped with a Waters ACQUITY BEH C18 1.7 μm 2.1 × 50 mm column, eluting with 0.1% formic acid in water or in acetonitrile, with a flow of 0.6 mL/min. The gradient indicated in Table 1 was used in this assay.
# (§4) Compound concentration was calculated from the MS peak areas and expressed as the percentage of remaining compound at the different tested times.
# [5] = Plasma stability, mouse plasma; type: in vitro ADME; details: 37 °C; for remaining at 1 h, 5 μM: read-out: Plasma Stability % Remaining Compound, mouse, 1 h; for remaining at 6 h, 5 μM: read-out: Plasma Stability % Remaining Compound, mouse, 6 h
# Procedure: as §3, §4
# physchem = details: PBS (99%) with DMSO (1%), 37 °C, aqueous buffer, kinetic from dmso stock, kinetic solubility
# Procedure: The resulting solutions were incubated at 37 °C. After 2 h incubation, the samples were read using a BMG LABTECH NEPHELOstar Plus laser nephelometer (Ortenberg, Germany).
# in vitro = details: PAMPA, PAMPA-BBB
# Procedure: The parallel artificial membrane permeability assay for the blood–brain barrier (PAMPA-BBB) [41] was used to assess the in vitro brain permeability of the new compounds. For the assay, the compounds were dissolved in mixtures of PBS and ethanol (70:30).
# [6] = Solubility class, classification after ref 70
# [7] = Solubility, 2 h, DMSO (1%)/PBS (99%)
# [8] = Solubility, 2 h, PBS with 1% DMSO, nephelometry
# [9] = Brain Permeability Pe, mean ± SD
# [10] = Brain permeability class, Table 4
# T1 sequence (P10636 other isoform, or with tags, fused parts or gaps): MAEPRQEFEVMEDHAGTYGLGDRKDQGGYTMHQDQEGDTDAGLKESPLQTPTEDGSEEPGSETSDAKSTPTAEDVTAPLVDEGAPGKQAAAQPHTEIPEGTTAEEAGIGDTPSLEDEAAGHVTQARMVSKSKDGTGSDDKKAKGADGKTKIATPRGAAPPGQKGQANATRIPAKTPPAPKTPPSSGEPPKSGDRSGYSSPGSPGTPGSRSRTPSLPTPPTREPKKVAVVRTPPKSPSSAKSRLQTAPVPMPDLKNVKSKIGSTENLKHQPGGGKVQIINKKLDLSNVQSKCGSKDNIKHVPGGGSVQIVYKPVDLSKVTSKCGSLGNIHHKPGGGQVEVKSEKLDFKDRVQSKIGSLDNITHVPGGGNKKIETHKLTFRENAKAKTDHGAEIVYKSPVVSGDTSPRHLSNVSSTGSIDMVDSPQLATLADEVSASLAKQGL
# T2 sequence (P06276 29-602): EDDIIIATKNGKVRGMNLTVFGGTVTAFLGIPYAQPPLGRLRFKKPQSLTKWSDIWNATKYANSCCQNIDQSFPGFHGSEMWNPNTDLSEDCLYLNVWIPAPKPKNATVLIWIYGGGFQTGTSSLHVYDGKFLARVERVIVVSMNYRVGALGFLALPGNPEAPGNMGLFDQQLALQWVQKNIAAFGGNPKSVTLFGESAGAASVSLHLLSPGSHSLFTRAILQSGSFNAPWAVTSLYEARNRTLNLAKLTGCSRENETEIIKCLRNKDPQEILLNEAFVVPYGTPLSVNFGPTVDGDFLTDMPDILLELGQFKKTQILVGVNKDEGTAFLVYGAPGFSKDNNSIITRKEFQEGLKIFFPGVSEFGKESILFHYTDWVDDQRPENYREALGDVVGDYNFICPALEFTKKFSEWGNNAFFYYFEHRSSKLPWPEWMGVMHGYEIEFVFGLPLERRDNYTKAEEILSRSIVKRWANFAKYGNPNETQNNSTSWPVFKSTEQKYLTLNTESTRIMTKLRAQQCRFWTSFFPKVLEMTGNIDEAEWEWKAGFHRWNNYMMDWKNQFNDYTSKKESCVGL
# T3 sequence (P05067 672-713): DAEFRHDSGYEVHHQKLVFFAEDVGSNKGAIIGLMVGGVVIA
# T4 sequence (P22303 32-614): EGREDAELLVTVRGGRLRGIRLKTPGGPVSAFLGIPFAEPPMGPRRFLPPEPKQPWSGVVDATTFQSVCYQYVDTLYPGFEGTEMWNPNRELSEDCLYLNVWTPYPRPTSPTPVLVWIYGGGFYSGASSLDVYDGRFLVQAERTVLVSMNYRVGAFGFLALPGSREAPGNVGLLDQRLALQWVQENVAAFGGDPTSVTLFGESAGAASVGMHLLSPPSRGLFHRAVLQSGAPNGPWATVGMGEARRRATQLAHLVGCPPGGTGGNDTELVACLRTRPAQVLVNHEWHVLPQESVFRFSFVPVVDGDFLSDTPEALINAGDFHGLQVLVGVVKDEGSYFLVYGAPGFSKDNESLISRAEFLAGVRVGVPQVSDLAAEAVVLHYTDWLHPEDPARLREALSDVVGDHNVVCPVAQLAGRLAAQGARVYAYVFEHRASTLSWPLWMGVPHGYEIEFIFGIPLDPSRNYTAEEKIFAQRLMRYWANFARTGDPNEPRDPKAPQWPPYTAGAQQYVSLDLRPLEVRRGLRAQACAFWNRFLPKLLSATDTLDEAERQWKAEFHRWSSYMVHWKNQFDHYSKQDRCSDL
Structure (SMILES),LC50 at 72 h [1] [nM],inhibition at 10 µM (tau aggregation) [%],"remaining at 1 h, 5 μM [2] [%]","remaining at 6 h, 5 μM [2] [%]",IC50 (human serum BChE (hBChE)) [nM],inhibition at 10 µM (Aβ42 aggregation) [%],AChE vs. BChE selectivity [3],IC50 [3] [nM],"remaining at 1 h, 5 μM [4] [%]","remaining at 6 h, 5 μM [4] [%]","remaining at 1 h, 5 μM [5] [%]","remaining at 6 h, 5 μM [5] [%]",solubility at 2 h (physchem; [6]) [µg/mL],solubility at 2 h (physchem; [7]) [µg/mL],solubility at 2 h (physchem; [8]) [µM],Papp (in vitro; [9]) [×10⁻⁶ cm/s],Papp (in vitro; [10]) [×10⁻⁶ cm/s],increase in hBChE inhibitory activity relative to hybrid 3 (human serum BChE (hBChE); relative to dihydroxyanthraquinone hybrid 3)
"CC1=CC2Cc3nc4cc(Cl)ccc4c(NCCCCCCCCCNC(=O)c4ccc5c(c4)C(=O)c4ccccc4-5)c3C(C1)C2 (stereo not drawn) [Compound 5, N-{9-[(3-Chloro-6,7,10,11-tetrahydro-9-methyl-7,11-methanocycloocta[b]quinolin-12-yl)amino]nonyl}-9-fluorenone-2-carboxamide]",> 100000,68.9 ± 2.1,88.5,80.4,883 ± 55,69.8 ± 1.2,149,5.93 ± 0.26,93.6,84.7,95.7,90.4,< 10,5.4,8.1,6.2 ± 0.8,> 5.2,–
"CC1=CC2Cc3nc4cc(Cl)ccc4c(NCCCCCCCCCNC(=O)c4cccc(C(=O)c5ccccc5)c4)c3C(C1)C2 (stereo not drawn) [Compound 6, 3-Benzoyl-N-{9-[(3-chloro-6,7,10,11-tetrahydro-9-methyl-7,11-methanocycloocta[b]quinolin-12-yl)amino]nonyl}benzamide]",40100,62.5 ± 2.1,100,90.8,16.5 ± 1.9,72.6 ± 2.7,–,11.6 ± 0.9,96,92.4,98.3,76.9,< 10,8.4,12.5,7.4 ± 0.3,> 5.2,40–50 fold
"CC1=CC2Cc3nc4cc(Cl)ccc4c(NCCCCCCCCCNC(=O)c4ccc5c(c4)C(=O)c4ccccc4C5=O)c3C(C1)C2 (stereo not drawn) [Compound 4, N-{9-[(3-Chloro-6,7,10,11-tetrahydro-9-methyl-7,11-methanocycloocta[b]quinolin-12-yl)amino]nonyl}anthraquinone-2-carboxamide]",> 100000,63 ± 3.5,94.2,97.6,1250 ± 130,73.3 ± 3.6,181,6.91 ± 0.77,100,77.2,96,90.1,< 10,5.9,8.4,9.2 ± 1.2,> 5.2,–
